Test results reported in PMC11345841, “Exploring 2-Sulfonylpyrimidine Warheads as Acrylamide Surrogates for Targeted Covalent Inhibition: A BTK Story” (Journal of Medicinal Chemistry, 2024).
Where two headings read alike, the source gives them in different places.

Assays:
Assay in all cases: KINOMEscan ScanTK
Assay type in all cases: binding
[1] = target: T1, ABL1(F317I)-nonphosphorylated (Homo sapiens, UniProt P00519, F317I)
T1 construct: purchased Eurofins DiscoverX KINOMEscan (scanTK)

[2] = target: T2, EPHB6 (Homo sapiens, UniProt O15197)
T2 construct: purchased Eurofins DiscoverX KINOMEscan (scanTK)
T2 sequence (O15197 32-1021): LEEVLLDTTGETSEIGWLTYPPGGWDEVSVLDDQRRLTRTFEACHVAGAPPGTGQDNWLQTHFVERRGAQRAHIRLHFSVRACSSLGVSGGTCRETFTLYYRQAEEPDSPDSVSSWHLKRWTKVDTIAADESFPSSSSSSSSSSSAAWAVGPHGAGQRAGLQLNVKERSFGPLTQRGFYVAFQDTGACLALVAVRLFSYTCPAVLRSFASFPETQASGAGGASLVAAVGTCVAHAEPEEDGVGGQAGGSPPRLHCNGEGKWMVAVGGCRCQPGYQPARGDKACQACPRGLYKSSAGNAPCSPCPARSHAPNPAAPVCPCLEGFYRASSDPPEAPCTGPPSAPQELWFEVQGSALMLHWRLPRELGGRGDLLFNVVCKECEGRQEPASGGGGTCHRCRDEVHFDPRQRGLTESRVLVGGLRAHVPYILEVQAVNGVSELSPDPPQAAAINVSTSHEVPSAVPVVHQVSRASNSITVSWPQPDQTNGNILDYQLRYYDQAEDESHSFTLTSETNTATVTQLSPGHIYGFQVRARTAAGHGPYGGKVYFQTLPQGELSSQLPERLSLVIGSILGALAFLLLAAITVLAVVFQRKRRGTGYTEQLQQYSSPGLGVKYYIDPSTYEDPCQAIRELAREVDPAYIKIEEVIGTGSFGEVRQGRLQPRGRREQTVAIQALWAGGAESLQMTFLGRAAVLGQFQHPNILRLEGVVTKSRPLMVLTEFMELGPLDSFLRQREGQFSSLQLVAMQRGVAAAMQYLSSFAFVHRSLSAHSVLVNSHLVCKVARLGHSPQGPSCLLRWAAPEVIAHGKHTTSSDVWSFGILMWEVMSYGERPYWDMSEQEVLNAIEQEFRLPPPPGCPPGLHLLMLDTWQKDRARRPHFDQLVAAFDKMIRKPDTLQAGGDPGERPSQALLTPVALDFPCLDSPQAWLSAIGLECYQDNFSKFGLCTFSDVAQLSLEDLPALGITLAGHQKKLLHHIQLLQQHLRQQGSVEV

[3] = target: T3, MUSK (Homo sapiens, UniProt O15146)
T3 construct: purchased Eurofins DiscoverX KINOMEscan (scanTK)
T3 sequence (O15146 24-869): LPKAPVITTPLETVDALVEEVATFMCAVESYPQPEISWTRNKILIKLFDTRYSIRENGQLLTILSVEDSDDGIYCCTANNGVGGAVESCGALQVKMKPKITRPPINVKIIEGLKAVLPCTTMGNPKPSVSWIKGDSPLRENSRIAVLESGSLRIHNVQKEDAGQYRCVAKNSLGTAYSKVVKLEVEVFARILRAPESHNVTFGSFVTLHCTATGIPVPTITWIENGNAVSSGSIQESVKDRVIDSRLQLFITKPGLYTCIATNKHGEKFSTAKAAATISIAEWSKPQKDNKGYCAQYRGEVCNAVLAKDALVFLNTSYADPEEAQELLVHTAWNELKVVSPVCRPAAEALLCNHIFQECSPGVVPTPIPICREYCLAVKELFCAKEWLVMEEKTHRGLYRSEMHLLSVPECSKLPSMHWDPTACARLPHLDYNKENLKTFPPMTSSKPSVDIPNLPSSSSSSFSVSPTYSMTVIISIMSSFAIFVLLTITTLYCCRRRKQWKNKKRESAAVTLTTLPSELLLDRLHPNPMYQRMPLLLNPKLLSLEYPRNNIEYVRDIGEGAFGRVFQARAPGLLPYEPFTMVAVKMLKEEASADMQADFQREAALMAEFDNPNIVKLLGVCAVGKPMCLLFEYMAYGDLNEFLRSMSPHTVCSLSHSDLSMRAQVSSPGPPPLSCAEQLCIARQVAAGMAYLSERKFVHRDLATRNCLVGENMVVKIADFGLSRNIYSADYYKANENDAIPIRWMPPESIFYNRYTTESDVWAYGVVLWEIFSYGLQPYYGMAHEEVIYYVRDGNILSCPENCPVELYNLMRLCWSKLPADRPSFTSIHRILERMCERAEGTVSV

[4] = target: T4, SRC (Homo sapiens, UniProt P12931)
T4 construct: purchased Eurofins DiscoverX KINOMEscan (scanTK)

[5] = target: T5, FLT3(D835V) (Homo sapiens, UniProt P36888, D835V)
T5 construct: purchased Eurofins DiscoverX KINOMEscan (scanTK)
T5 sequence (P36888 27-993 D835V): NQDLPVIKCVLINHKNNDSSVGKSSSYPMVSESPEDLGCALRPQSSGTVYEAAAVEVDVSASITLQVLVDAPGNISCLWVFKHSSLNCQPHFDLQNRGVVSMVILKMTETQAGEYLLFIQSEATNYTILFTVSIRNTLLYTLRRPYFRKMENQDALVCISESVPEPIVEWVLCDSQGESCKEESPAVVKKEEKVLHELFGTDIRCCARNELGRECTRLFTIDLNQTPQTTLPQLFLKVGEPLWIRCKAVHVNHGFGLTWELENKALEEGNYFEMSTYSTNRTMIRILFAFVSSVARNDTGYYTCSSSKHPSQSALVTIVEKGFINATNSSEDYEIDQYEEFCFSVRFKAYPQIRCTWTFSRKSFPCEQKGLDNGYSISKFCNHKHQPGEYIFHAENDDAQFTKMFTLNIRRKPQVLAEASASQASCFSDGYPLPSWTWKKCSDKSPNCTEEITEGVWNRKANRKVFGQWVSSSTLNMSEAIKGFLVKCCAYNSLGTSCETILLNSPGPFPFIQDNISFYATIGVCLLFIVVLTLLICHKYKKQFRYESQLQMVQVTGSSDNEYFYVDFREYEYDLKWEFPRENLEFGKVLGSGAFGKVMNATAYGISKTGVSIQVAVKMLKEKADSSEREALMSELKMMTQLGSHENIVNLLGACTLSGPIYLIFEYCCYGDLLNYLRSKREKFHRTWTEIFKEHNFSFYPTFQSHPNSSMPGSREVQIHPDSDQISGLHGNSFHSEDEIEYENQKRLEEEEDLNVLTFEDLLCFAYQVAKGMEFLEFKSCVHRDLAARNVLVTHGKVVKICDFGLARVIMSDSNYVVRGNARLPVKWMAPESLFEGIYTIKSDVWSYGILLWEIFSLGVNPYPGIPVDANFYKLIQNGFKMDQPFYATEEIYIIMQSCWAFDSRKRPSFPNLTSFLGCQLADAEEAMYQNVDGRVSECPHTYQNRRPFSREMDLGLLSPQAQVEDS

T4 sequence (P12931 whole entry): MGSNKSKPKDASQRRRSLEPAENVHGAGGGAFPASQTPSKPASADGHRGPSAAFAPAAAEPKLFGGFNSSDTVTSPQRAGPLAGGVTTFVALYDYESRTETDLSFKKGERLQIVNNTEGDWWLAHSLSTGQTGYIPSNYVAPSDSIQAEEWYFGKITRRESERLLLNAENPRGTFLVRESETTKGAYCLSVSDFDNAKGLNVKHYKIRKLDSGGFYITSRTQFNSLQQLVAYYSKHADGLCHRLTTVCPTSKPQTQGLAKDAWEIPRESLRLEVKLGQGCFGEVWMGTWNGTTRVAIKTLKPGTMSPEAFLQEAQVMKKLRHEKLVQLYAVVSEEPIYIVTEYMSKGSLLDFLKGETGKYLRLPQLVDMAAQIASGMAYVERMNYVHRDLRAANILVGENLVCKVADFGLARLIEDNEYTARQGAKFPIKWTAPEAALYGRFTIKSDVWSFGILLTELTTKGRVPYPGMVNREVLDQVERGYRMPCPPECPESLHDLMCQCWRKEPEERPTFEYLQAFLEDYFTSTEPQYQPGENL
T1 sequence (P00519 whole entry F317I): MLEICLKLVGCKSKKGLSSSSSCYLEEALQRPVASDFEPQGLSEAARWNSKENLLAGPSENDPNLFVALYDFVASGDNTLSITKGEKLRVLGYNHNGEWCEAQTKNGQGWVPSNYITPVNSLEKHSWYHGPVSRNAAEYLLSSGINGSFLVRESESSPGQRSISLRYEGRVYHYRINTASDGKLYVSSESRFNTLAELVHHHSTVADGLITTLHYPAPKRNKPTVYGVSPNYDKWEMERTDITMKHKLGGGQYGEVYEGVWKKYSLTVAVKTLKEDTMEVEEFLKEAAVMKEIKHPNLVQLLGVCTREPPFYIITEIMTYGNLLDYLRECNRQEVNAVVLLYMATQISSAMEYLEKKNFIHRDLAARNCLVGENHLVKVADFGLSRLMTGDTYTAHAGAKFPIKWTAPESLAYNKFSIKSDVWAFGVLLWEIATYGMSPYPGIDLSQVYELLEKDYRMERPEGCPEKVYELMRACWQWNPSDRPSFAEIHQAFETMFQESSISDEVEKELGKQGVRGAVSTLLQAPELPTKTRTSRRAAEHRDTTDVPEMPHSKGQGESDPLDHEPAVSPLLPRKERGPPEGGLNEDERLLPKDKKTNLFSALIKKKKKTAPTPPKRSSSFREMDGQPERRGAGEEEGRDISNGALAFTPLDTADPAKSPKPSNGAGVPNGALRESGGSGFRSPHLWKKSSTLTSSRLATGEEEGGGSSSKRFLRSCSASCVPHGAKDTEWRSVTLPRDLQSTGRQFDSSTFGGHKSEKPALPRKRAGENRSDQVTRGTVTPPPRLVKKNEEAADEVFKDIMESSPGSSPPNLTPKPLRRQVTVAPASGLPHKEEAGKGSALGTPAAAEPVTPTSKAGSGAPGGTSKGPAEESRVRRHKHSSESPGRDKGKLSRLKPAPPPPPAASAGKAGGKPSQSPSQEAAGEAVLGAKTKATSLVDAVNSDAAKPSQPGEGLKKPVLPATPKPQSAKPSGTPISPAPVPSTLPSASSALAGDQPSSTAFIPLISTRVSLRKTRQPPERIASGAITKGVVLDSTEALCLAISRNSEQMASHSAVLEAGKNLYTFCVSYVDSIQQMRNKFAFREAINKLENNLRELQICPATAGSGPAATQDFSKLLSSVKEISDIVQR

Row | difference in %Control versus compound Ib at 1 µM ([1]; @1000nM) [%] | remaining binding at 1 µM ([1]; @1000nM, read-out: %Control) [%] | remaining binding at 1 µM ([1]; read-out: %Control @1000nM) [%] | difference in %Control versus compound Ib at 1 µM ([2]; @1000nM) [%] | remaining binding at 1 µM ([2]; @1000nM, read-out: %Control) [%] | remaining binding at 1 µM ([2]; read-out: %Control @1000nM) [%] | remaining binding at 1 µM ([3]; @1000nM, read-out: %Control) [%] | remaining binding at 1 µM ([3]; read-out: %Control @1000nM) [%] | remaining binding at 1 µM ([4]; @1000nM, read-out: %Control) [%] | remaining binding at 1 µM ([4]; read-out: %Control @1000nM) [%] | difference in %Control versus compound Ib at 1 µM ([5]; @1000nM) [%] | remaining binding at 1 µM ([5]; @1000nM, read-out: %Control) [%] | remaining binding at 1 µM ([5]; read-out: %Control @1000nM) [%] | Structure (SMILES)
1 | 46 | 98 | 98 | 54 | 72 | 72 | 73 | 73 | 66 | 66 | 46.1 | 56 | 56 | CCOC(=O)c1cnc(S(C)(=O)=O)nc1N1CCC[C@@H](n2nc(-c3ccc(Oc4ccccc4)cc3)c3c(N)ncnc32)C1 [Compound 8c, Ethyl (R)-4-(3-(4-Amino-3-(4-phenoxyphenyl)-1H-pyrazolo[3,4-d]pyrimidin-1-yl)piperidin-1-yl)-2-(methylsulfonyl)pyrimidine-5-carboxylate]
2 | 30 | 82 | 82 | -9.1 | 8.9 | 8.9 | 92 | 92 | 60 | 60 | 38.1 | 48 | 48 | COC(=O)c1cnc(S(C)(=O)=O)nc1N1CCCC(n2nc(-c3ccc(Oc4ccccc4)cc3)c3c(N)ncnc32)C1 (stereo not shown) [Compound 8b, Methyl 4-(3-(4-Amino-3-(4-phenoxyphenyl)-1H-pyrazolo[3,4-d]pyrimidin-1-yl)piperidin-1-yl)-2-(methylsulfonyl)pyrimidine-5-carboxylate]

Further lines, the compound ahead of its results:

Row | Structure (SMILES) | difference in %Control versus compound Ib at 1 µM ([1]; @1000nM) [%] | remaining binding at 1 µM ([1]; @1000nM, read-out: %Control) [%] | remaining binding at 1 µM ([1]; read-out: %Control @1000nM) [%] | difference in %Control versus compound Ib at 1 µM ([2]; @1000nM) [%] | remaining binding at 1 µM ([2]; @1000nM, read-out: %Control) [%] | remaining binding at 1 µM ([2]; read-out: %Control @1000nM) [%] | remaining binding at 1 µM ([3]; @1000nM, read-out: %Control) [%] | remaining binding at 1 µM ([3]; read-out: %Control @1000nM) [%] | remaining binding at 1 µM ([4]; @1000nM, read-out: %Control) [%] | remaining binding at 1 µM ([4]; read-out: %Control @1000nM) [%] | difference in %Control versus compound Ib at 1 µM ([5]; @1000nM) [%] | remaining binding at 1 µM ([5]; @1000nM, read-out: %Control) [%] | remaining binding at 1 µM ([5]; read-out: %Control @1000nM) [%]
3 | Cc1cnc(S(C)(=O)=O)nc1N1CCCC(n2nc(-c3ccc(Oc4ccccc4)cc3)c3c(N)ncnc32)C1 (stereo not shown) [Compound 8a, 1-(1-(5-Methyl-2-(methylsulfonyl)pyrimidin-4-yl)piperidin-3-yl)-3-(4-phenoxyphenyl)-1H-pyrazolo[3,4-d]pyrimidin-4-amine] | 29 | 81 | 81 | 6 | 24 | 24 | 88 | 88 | 17 | 17 | 20.1 | 30 | 30
4 | C=CC(=O)N1CCC[C@@H](n2nc(-c3ccc(Oc4ccccc4)cc3)c3c(N)ncnc32)C1 [Compound 1g, Ibrutinib, reference compound] | – | 52 | 52 | – | 18 | 18 | 95 | 95 | – | – | – | – | –
5 | CNC(=O)c1cnc(S(C)(=O)=O)nc1N1CCCC(n2nc(-c3ccc(Oc4ccccc4)cc3)c3c(N)ncnc32)C1 (stereo not shown) [Compound 8d, 4-(3-(4-Amino-3-(4-phenoxyphenyl)-1H-pyrazolo[3,4-d]pyrimidin-1-yl)piperidin-1-yl)-N-methyl-2-(methylsulfonyl)pyrimidine-5-carboxamide] | 33 | 85 | 85 | 16 | 34 | 34 | 98 | 98 | 43 | 43 | 13.1 | 23 | 23
